# Measurements: PubChem BioAssay AID1934 (Broad Institute, 2009)
# Records with an inconclusive call do not appear.
# Tested on: DRD oncogenic fibroblast viability, ATP luminescence
# Assay: DRD fibroblast viability loss – cell-based, non-viral oncogenic, luminescence, dose response (AID 1934)
structure (smiles),measurement,value
C=C(C=O)CC1CC(O)[C@]2(C)OC3CC4OC5C[C@]6(C)O[C@]7(C)CCC8OC9C[C@]%10(C)OC%11C(C)=CC(=O)OC%11CC%10OC9C[C@@H](C)C8OC7CC6O[C@]5(C)CC5OC5C4OC3CC2O1 (stereo partly specified),EC50,824 nM
